From article PMC12737022, “Evaluations of Sex Differences in Dosimetry in Rats Following Perfluorohexanesulfonamide (PFHxSA) Oral Exposure” (Toxics, 2025)
Values after ≈ are worked out from the molar mass of the structure shown. Values joined by “and” are separate entries in the source; they are usually repeats but may differ in a detail not shown here. Equal values may be shown once. Read-outs that look alike come from different tables or passages of the source.

Legend:
[1] = Liver-to-plasma partitioning (Kp); format: in vivo, rat; details: for Kp at 120 h: po
Procedure: Liver-to-plasma partitioning (Kp) for PFHxSA was assessed for each sex (SI Text S8, Table 6). There were no sex differences in PFHxSA Kp values. […] Refer to SI Table S15 for Kp results for individual rats. […]
Text S8 Liver-to-Plasma Partitioning Coefficient Calculation
Concentrations (µM) of PFHxSA in liver and plasma were used to calculate experimental liver-to-
plasma (Kp) partitioning values for both sexes across all dose levels using Equation E.
(E) K ௣ = Concentration௢௥௚௔௡Concentration௣௟௔௦௠௔

[2] = Solubility and stability of PFHxSA corn oil dosing solutions; format: physicochemical; details: for Replicate percent recoveries, Day 5 / Replicate percent recoveries, Day 7 / Replicate percent recoveries, Day 14: relative to Day 0
Procedure: The stability of PFHxSA corn oil dosing solutions was also evaluated up to 14 days. PFHxSA solutions were prepared using the same lot number of the chemical as was used in Mutlu et al.. Solutions were prepared under an inert atmosphere at a 20,000 µg/mL (20 mg/mL) high-dose solution and a 2 µg/mL ([…]) low-dose solution to mimic the range of concentrations of the dosing formulations used for the in vivo study. Each batch included an MB and an LCS prepared from blank corn oil as QC. The solutions were split into two aliquots each. One aliquot was stored at 4 °C; the other aliquot was stored at room temperature, with both protected from light. The stability samples were analyzed in triplicate on Days 0, 5, 7, and 14 using the same extraction method and LC/MS/MS conditions outlined in SI Texts S2 and S3, respectively. Stability was assessed by using mean peak areas to calculate the percent recovery for each day of analysis relative to Day 0. Information on percent recovery calculation and additional experimental details concerning the stability study may be found in SI Text S2.
Text S1 Solvents and Additives for Analytical Chemistry
Solvents used for sample preparation and mobile phases include methanol (MeOH), water (H2O), and acetonitrile (ACN), which were LC/MS-grade and purchased from Honeywell Burdick & Jackson (Charlotte, NC, USA). Ammonium formate (BioUltra purity) and ammonium acetate (99% pure) were used as mobile phase additives and obtained from Millipore Sigma (St. Louis, MO, USA). Formic acid (FA; 97.5% pure) was also used as an additive; it was purchased from Honeywell Fluka. Detailed information for chemicals used for each analysis may be found in Table S1.
Text S2 Dosing-Solution Determination and Stability Assessment
Dosing solutions were extracted by liquid–liquid extraction using 50 uL aliquots of the dosing solutions and 950 uL of 0.1M formic acid in acetonitrile, vortexing the mixture at 2000 rpm, and centrifuging at 5400 × g for 10 minutes. The supernatants were drawn off and added to Waters Oasis Prime HLB 3cc 60mg (Waters, Milford, MA, USA) solid phase extraction (SPE) cartridges. Supernatants were allowed to elute through the cartridge via gravity. Finally, 100 uL of eluent was diluted using 100 uL of 1% formic acid in water. Extracts were further diluted with the extracted method blank (corn oil) to bring the concentrations to within the calibration range. Sample extracts were analyzed using the same LC/MS/MS method outlined for PFHxSA plasma and liver in Text S4. Samples were quantitated against a matrix-matched calibration curve containing a minimum of 5 points spanning 50-500 ng/mL in extract. […]
verification (CCV) sample and laboratory control sample (LCS) were injected at the start and end of each analytical batch to confirm the validity of the calibration curve and sample quantitation. Acceptance criteria for the CCV and LCS were readback concentrations ± 30% of nominal concentration. The method blank acceptance criterion was a readback concentration of PFHxSA < 0.5x the limit of quantitation (LOQ) of the method. The LOQ was 50 ng/mL in the extract. Samples were injected in sequential order (e.g., r01, r02, r03, …, etc.); no duplicate injections of samples were performed.
Assessment of the stability of PFHxSA in corn oil was conducted using the same extraction method as for dosing solutions. Analysis of PFHxSA in corn oil was conducted using the same LC/MS/MS conditions as PFHxSA dosimetry in plasma and liver (Text S4). The average ratio of PFHxSA peak area to PFOSA internal standard peak area for three replicate injections was divided by the average ratio for Day 0 to derive the percentage of recovery for a given day. No calibration curve was generated for the Stability Assessment. For quality control, the extraction blank needed to have a PFHxSA signal that was ≤ 10% the peak area of PFHxSA on Day 0; the daily LCS was acceptable with a PFHxSA/PFOSA area ratio within 30% of the Day 0 LCS. […]

[3] = tested on: cytochrome P450 (CYP450) hepatic metabolism enzyme isoforms 3A2, 4A1, and 2J4; design: method as in Mutlu et al. [55]; details: ref Mutlu et al. [55], cited from earlier work

## NS(=O)(=O)C(F)(F)C(F)(F)C(F)(F)C(F)(F)C(F)(F)C(F)(F)F [PFHxSA, Perfluorohexanesulfonamide]
[1]; PFHxSA 0.1 mg/kg/day oral 5 days, female, individual rats
  Female Partition Coefficient (Kp), liver-plasma: 0.516 and 0.491 and 0.293 and 0.378
[1]; PFHxSA 0.1 mg/kg/day oral 5 days, male, individual rats
  Male Partition Coefficient (Kp), liver-plasma: 0.662 and 0.433 and 0.319 and 0.860 and 0.744
[1]; PFHxSA 0.3 mg/kg/day oral 5 days, female, individual rats
  Female Partition Coefficient (Kp), liver-plasma: 0.633 and 0.239 and 0.486 and 0.499 and 0.302
[1]; PFHxSA 0.3 mg/kg/day oral 5 days, male, individual rats
  Male Partition Coefficient (Kp), liver-plasma: 0.215 and 0.362 and 0.134 and 0.315 and 0.255
[1]; PFHxSA 1 mg/kg/day oral 5 days, female, individual rats
  Female Partition Coefficient (Kp), liver-plasma: 0.197 and 0.224 and 0.122 and 0.325
[1]; PFHxSA 1 mg/kg/day oral 5 days, male, individual rats
  Male Partition Coefficient (Kp), liver-plasma: 0.233 and 0.174 and 0.293 and 0.249
[1]; PFHxSA 3 mg/kg/day oral 5 days, female, individual rats
  Female Partition Coefficient (Kp), liver-plasma: 0.280 and 0.239 and 0.244
[1]; PFHxSA 3 mg/kg/day oral 5 days, male, individual rats
  Male Partition Coefficient (Kp), liver-plasma: 0.193 and 0.153 and 0.235 and 0.105 and 0.244
[1]; PFHxSA 10 mg/kg/day oral 5 days, female, individual rats
  Female Partition Coefficient (Kp), liver-plasma: 0.145 and 0.119 and 0.113 (2×)
[1]; PFHxSA 10 mg/kg/day oral 5 days, male, individual rats
  Male Partition Coefficient (Kp), liver-plasma: 0.249 and 0.178 and 0.194
[1]; PFHxSA 30 mg/kg/day oral 5 days, female, individual rats
  Female Partition Coefficient (Kp), liver-plasma: 0.134 and 0.142 and 0.162 and 0.147
[1]; PFHxSA 30 mg/kg/day oral 5 days, male, individual rats
  Male Partition Coefficient (Kp), liver-plasma: 0.142 (2×) and 0.145
[1]; PFHxSA 100 mg/kg/day oral 5 days, female, individual rats
  Female Partition Coefficient (Kp), liver-plasma: 0.187 and 0.344 and 0.214 and 0.213
[1]; PFHxSA 100 mg/kg/day oral 5 days, male, individual rats
  Male Partition Coefficient (Kp), liver-plasma: 0.506 and 0.754 and 0.306 and 0.230 and 0.221
[1]; both sexes, Sprague Dawley (Crl:CD(SD)), rat, liver and plasma, oral, both sexes across all tested doses
  Kp at 24 h: 0.13 to 0.6
[1]; female, Sprague Dawley (Crl:CD(SD)), rat, liver and plasma, 0.1 mg/kg/day, PFHxSA 0.1 mg/kg/day oral 5 days, female, individual rats, read-out: Female Partition Coefficient (Kp), liver-plasma
  Kp at 120 h: 0.424
[1]; female, Sprague Dawley (Crl:CD(SD)), rat, liver and plasma, 0.3 mg/kg/day, PFHxSA 0.3 mg/kg/day oral 5 days, female rats, mean ± SD, read-out: PFHxSA liver-to-plasma Kp, Female Rats
  Kp at 120 h: 0.431 ± 0.16
[1]; female, Sprague Dawley (Crl:CD(SD)), rat, liver and plasma, 1 mg/kg/day, PFHxSA 1 mg/kg/day oral 5 days, female rats, mean ± SD, read-out: PFHxSA liver-to-plasma Kp, Female Rats
  Kp at 120 h: 0.21 ± 0.074
[1]; female, Sprague Dawley (Crl:CD(SD)), rat, liver and plasma, 3 mg/kg/day, PFHxSA 3 mg/kg/day oral 5 days, female rats, mean ± SD, read-out: PFHxSA liver-to-plasma Kp, Female Rats
  Kp at 120 h: 0.222 ± 0.048
[1]; female, Sprague Dawley (Crl:CD(SD)), rat, liver and plasma, 3 mg/kg/day, PFHxSA 3 mg/kg/day oral 5 days, female, individual rats, read-out: Female Partition Coefficient (Kp), liver-plasma
  Kp at 120 h: 0.158
[1]; female, Sprague Dawley (Crl:CD(SD)), rat, liver and plasma, 10 mg/kg/day, PFHxSA 10 mg/kg/day oral 5 days, female rats, mean ± SD, read-out: PFHxSA liver-to-plasma Kp, Female Rats
  Kp at 120 h: 0.135 ± 0.03
[1]; female, Sprague Dawley (Crl:CD(SD)), rat, liver and plasma, 10 mg/kg/day, PFHxSA 10 mg/kg/day oral 5 days, female, individual rats, read-out: Female Partition Coefficient (Kp), liver-plasma
  Kp at 120 h: 0.183
[1]; female, Sprague Dawley (Crl:CD(SD)), rat, liver and plasma, 30 mg/kg/day, PFHxSA 30 mg/kg/day oral 5 days, female rats, mean ± SD, read-out: PFHxSA liver-to-plasma Kp, Female Rats
  Kp at 120 h: 0.148 ± 0.011
[1]; female, Sprague Dawley (Crl:CD(SD)), rat, liver and plasma, 30 mg/kg/day, PFHxSA 30 mg/kg/day oral 5 days, female, individual rats, read-out: Female Partition Coefficient (Kp), liver-plasma
  Kp at 120 h: 0.154
[1]; female, Sprague Dawley (Crl:CD(SD)), rat, liver and plasma, 100 mg/kg/day, PFHxSA 100 mg/kg/day oral 5 days, female rats, mean ± SD, read-out: PFHxSA liver-to-plasma Kp, Female Rats
  Kp at 120 h: 0.222 ± 0.072
[1]; female, Sprague Dawley (Crl:CD(SD)), rat, liver/plasma, 0.1 mg/kg/day, PFHxSA 0.1 mg/kg/day oral 5 days, female rats, mean ± SD, read-out: PFHxSA liver-to-plasma Kp, Female Rats
  Kp at 120 h: 0.42 ± 0.09
[1]; male, Sprague Dawley (Crl:CD(SD)), rat, liver and plasma, 1 mg/kg/day, PFHxSA 1 mg/kg/day oral 5 days, male rats, mean ± SD, read-out: PFHxSA liver-to-plasma Kp, Male Rats
  Kp at 120 h: 0.223 ± 0.053
[1]; male, Sprague Dawley (Crl:CD(SD)), rat, liver and plasma, 1 mg/kg/day, PFHxSA 1 mg/kg/day oral 5 days, male, individual rats, read-out: Male Partition Coefficient (Kp), liver-plasma
  Kp at 120 h: 0.166
[1]; male, Sprague Dawley (Crl:CD(SD)), rat, liver and plasma, 3 mg/kg/day, PFHxSA 3 mg/kg/day oral 5 days, male rats, mean ± SD, read-out: PFHxSA liver-to-plasma Kp, Male Rats
  Kp at 120 h: 0.186 ± 0.058
[1]; male, Sprague Dawley (Crl:CD(SD)), rat, liver and plasma, 10 mg/kg/day, PFHxSA 10 mg/kg/day oral 5 days, male rats, mean ± SD, read-out: PFHxSA liver-to-plasma Kp, Male Rats
  Kp at 120 h: 0.189 ± 0.041
[1]; male, Sprague Dawley (Crl:CD(SD)), rat, liver and plasma, 10 mg/kg/day, PFHxSA 10 mg/kg/day oral 5 days, male, individual rats, read-out: Male Partition Coefficient (Kp), liver-plasma
  Kp at 120 h: 0.191
[1]; male, Sprague Dawley (Crl:CD(SD)), rat, liver and plasma, 30 mg/kg/day, PFHxSA 30 mg/kg/day oral 5 days, male rats, mean ± SD, read-out: PFHxSA liver-to-plasma Kp, Male Rats
  Kp at 120 h: 0.144 ± 0.0075
[1]; male, Sprague Dawley (Crl:CD(SD)), rat, liver and plasma, 30 mg/kg/day, PFHxSA 30 mg/kg/day oral 5 days, male, individual rats, read-out: Male Partition Coefficient (Kp), liver-plasma
  Kp at 120 h: 0.156
[1]; male, Sprague Dawley (Crl:CD(SD)), rat, liver and plasma, 100 mg/kg/day, PFHxSA 100 mg/kg/day oral 5 days, male rats, mean ± SD, read-out: PFHxSA liver-to-plasma Kp, Male Rats
  Kp at 120 h: 0.403 ± 0.23
[1]; male, Sprague Dawley (Crl:CD(SD)), rat, liver/plasma, 0.1 mg/kg/day, PFHxSA 0.1 mg/kg/day oral 5 days, male rats, mean ± SD, read-out: PFHxSA liver-to-plasma Kp, Male Rats
  Kp at 120 h: 0.604 ± 0.22
[1]; male, Sprague Dawley (Crl:CD(SD)), rat, liver/plasma, 0.3 mg/kg/day, PFHxSA 0.3 mg/kg/day oral 5 days, male rats, mean ± SD, read-out: PFHxSA liver-to-plasma Kp, Male Rats
  Kp at 120 h: 0.256 ± 0.088
[2]; 2 µg/mL to 20,000 µg/mL, within ±30% of the initial value, up to 14 days, room and refrigerated (4 °C) temperatures
  Stability of corn oil solutions: stable
[2]; corn oil 2 µg/mL, 4 °C
  MeanD14 (mean of percent recoveries for Day 14 replicates): 79.3%
  Replicate percent recoveries, Day 5: 90.8% and 94.3% and 97.9%
  Replicate percent recoveries, Day 7: 78.3% and 79.5% and 79.3%
  Replicate percent recoveries, Day 14: 77.3% and 77.6% and 83.0%
[2]; corn oil 2 µg/mL, RT
  MeanD14 (mean of percent recoveries for Day 14 replicates): 97.3%
  Replicate percent recoveries, Day 5: 97.4% and 96.8% and 96.1%
  Replicate percent recoveries, Day 7: 81.3% and 85.5% and 80.6%
  Replicate percent recoveries, Day 14: 97.0% and 93.3% and 102%
[2]; corn oil 20,000 µg/mL, 4 °C
  MeanD14 (mean of percent recoveries for Day 14 replicates): 128%
  Replicate percent recoveries, Day 5: 110% (2×) and 119%
  Replicate percent recoveries, Day 7: 119% and 118% and 116%
  Replicate percent recoveries, Day 14: 130% and 126% and 128%
[2]; corn oil 20,000 µg/mL, RT
  MeanD14 (mean of percent recoveries for Day 14 replicates): 88.6%
  Replicate percent recoveries, Day 5: 97.3% and 103% and 98.1%
  Replicate percent recoveries, Day 7: 90.1% and 94.3% and 88.4%
  Replicate percent recoveries, Day 14: 88.0% and 87.2% and 90.5%
[2]; corn oil, oil or lipid
  solubility: 20 mg/mL (≈ 50.1 mM)
[3]; rat liver
  Increase in mRNAs of CYP450 isoforms 3A2, 4A1, and 2J4: ≥ 2 fold
[3]
  Lowest observed transcriptional effect level, CYP450 isoforms 3A2, 4A1, and 2J4: 30 mg/kg/day
